Measurements: paper PMC6255327, “Design of Antimicrobially Active Small Amphiphilic Peptide Dendrimers” (Molecules, 2009)
Converted amounts (≈) assume the structure as drawn. Structures can show the parent of a compound that is named as a salt. Where two headings read alike, the source gives them in different places.

Experiments:
[1] = system: S. aureus ATCC 25923; experiment: microbe, parasite or virus in culture; assay type: cell-based, Staphylococcus aureus; details: read-out: Minimal inhibitory concentration (MIC)
Experimental: (§1) Bacteria. Staphylococcus aureus ATCC 25923, Pseudomonas aeruginosa ATCC 27853, Escherichia coli ATCC 25922 and Staphylococcus aureus ATCC 43300 were cultivated on tryptone - soy agar (TSA; Oxoid). Klebsiella pneumoniaeATCC 13882, Bordetella bronchiseptica ATCC 4617, Acinetobacter baumannii ATCC 19606 were cultivated onto nutrient agar (Difco). Escherichia coli ATCC BAA-198 was cultivated on TSA with ceftazidime (10 µg/mL or 15.7 μM; Sigma). All strains were incubated during 24 hrs at 37 °C.
(§2) Medium. Mueller – Hinton Broth (Oxoid) was supplemented with cations: 12.5 mg Mg ^++/L and25 mg Ca^++/L. The pH of the medium after sterilization is between 7.2 and 7.4 [cation–adjusted Mueller – Hinton Broth” (CAMHB)].
(§3) Reference method. Broth microdilution susceptibility test was performed as described in […] reference method M7-A7 (2). A series of the twofold dendrimers dilutions in DMSO and twofold polymyxin B and penicillin G dilutions in CAMHB were diluted […] with CAMHB. Aliquots (95 µL) were dispensed into microdilution sterile plates (Mar-Four). Then, bacteria inoculum (5 µL) containing 5 × 10^4 CFU/mL were added. The final concentration of dendrimers ranged from 128 to 2 µg/mL [or 105 to 1.6 μM for an average molecular mass for 7 series (1213) and 61 to 0.9 μM for an average molecular mass for 10 series(2,103)], polymyxin B and penicillin G from 8 – 0.15 µg /mL (or 5.8 to 0.1 μM and 21.5 to 0.4 μM, respectively for polymyxin B and penicillin G), all in twofold dilution steps. The plates were incubated at 35 °C and read after 18 or 24 hours depending on bacterial strain. MICs (Minimal Inhibitory Concentration) was defined as the lowest drug concentration that reduced growth by 100%.

[2] = system: E.coli ATCC 25922; assay type: cell-based, Escherichia coli
Experimental: as §1, §2, §3

[3] = system: S. aureus ATCC 43300; assay type: cell-based, Staphylococcus aureus; details: ATCC 43300, 24 h
Experimental: as §1, §2, §3

[4] = system: P. aeruginosa ATCC 27853; assay type: cell-based, Pseudomonas aeruginosa; details: ATCC 27853, 24 h
Experimental: as §1, §2, §3

[5] = system: B. bronchiseptica ATCC 4617; assay type: cell-based, Bordetella bronchiseptica; details: ATCC 4617, 24 h
Experimental: as §1, §2, §3

[6] = system: A. baumani ATCC 19606; assay type: cell-based, Acinetobacter baumannii; details: ATCC 19606, 24 h
Experimental: as §1, §2, §3

[7] = system: K. pneumoniae ATCC 13882; assay type: cell-based, Klebsiella pneumoniae; details: ATCC 13882, 24 h
Experimental: as §1, §2, §3

[8] = system: E. coli ATCC BAA-198; assay type: cell-based, Escherichia coli; details: ATCC BAA-198, 24 h
Experimental: as §1, §2, §3

[9] = system: C. albicans ATCC 90028; assay type: cell-based, Candida albicans; details: ATCC 90028, 48 h, pH 7
Experimental: (§4) Yeasts: Candida albicans ATCC 90028, Candida parapsilosis ATCC 22019 and Candida krusei ATCC 6258 were cultivated onto Sabouraud dextrose agar (Difco) during 24 hrs at 35 °C.
(§5) Medium: RPMI – 1640 (Sigma) supplemented with 0.2% (wt/vol) glucose, 0.3 g/L L-glutamine, 0.0053 g/L phenol red, buffered with morpholinopropanesulfonic acid (MOPS; Sigma) at a final concentration of 0.165 M and adjusted to pH 7.0 was prepared.
(§6) Reference Method: The broth microdilution susceptibility test was performed as described in Clinical and Laboratory Standards Institute (CLSI) reference method M27 – A2 (1). A series of the twofold dendrimers and amphotericin B dilutions in DMSO were diluted 1:49 with RPMI.

[10] = system: C. krusei ATCC 6258; experiment: microbe, parasite or virus in culture; assay type: cell-based, Candida krusei; details: read-out: Minimal inhibitory concentration (MIC)
Experimental: as §4, §5, §6

[11] = system: C. parapsilosis ATCC 22019; assay type: cell-based, Candida parapsilosis; details: ATCC 22019, 48 h, pH 7
Experimental: as §4, §5, §6

[12] = S. aureus ATCC 25923, broth microdilution CLSI M7-A7, CAMHB pH 7.2-7.4, 35 °C, read after 18 or 24 h, MIC = lowest concentration that reduced growth by 100%
[13] = E. coli ATCC 25922, broth microdilution CLSI M7-A7, CAMHB, 35 °C, read after 18 or 24 h, 100% growth reduction

Row | Compound | MIC [1, 12] | Minimal inhibitory concentration (MIC) [2, 13] | MIC ([1]; ATCC 25923, 24 h, pH 7.2) | Minimal inhibitory concentration (MIC) [3] | Minimal inhibitory concentration (MIC) [4] | Minimal inhibitory concentration (MIC) [5] | Minimal inhibitory concentration (MIC) [6] | Minimal inhibitory concentration (MIC) [7] | Minimal inhibitory concentration (MIC) [8] | Minimal inhibitory concentration (MIC) ([2]; ATCC 25922, 24 h) | Minimal inhibitory concentration (MIC) [9] | MIC ([10]; ATCC 6258, 48 h, pH 7) | Minimal inhibitory concentration (MIC) [11] | MIC ([1]; Staphylococcus aureus, ATCC25923, S. aureus ATCC 25923, broth microdilution CLSI M7-A7, CAMHB pH 7.2-7.4, 35 °C, read after 18 or 24 h, MIC = lowest concentration that reduced growth by 100%) | MIC ([10]; Pichia kudriavzevii, ATCC6258, C. krusei ATCC 6258, broth microdilution CLSI M27-A2, RPMI-1640 with MOPS pH 7.0, 35 °C, read after 24 and 48 h, 100% growth reduction)
1 | NCCCN(CCCN)CCC[C@@H](CO)N(CCCN)CCCN [Compound 5c, N,N’,N,N’-tetrakis(3-aminopropyl)-L-α,δ-diaminopentanol] | 113 µM (≈ 39.2 µg/mL) | >226 µM | – | – | – | – | – | – | – | – | – | – | – | – | –
2 | NCCCN(CCCN)CCCC[C@@H](CO)N(CCCN)CCCN [Compound 5d, N,N’,N,N’-tetrakis(3-aminopropyl)-L-α,ε-diaminohexanol] | 221 µM (≈ 79.7 µg/mL) | >221 µM | – | – | – | – | – | – | – | – | – | – | – | – | –
3 | NCCCC[C@H](NC(=O)OCc1ccccc1Cl)C(=O)NCCCN[C@@H](CN(CCCNC(=O)[C@H](CCCCN)NC(=O)OCc1ccccc1Cl)CCCNC(=O)[C@H](CCCCN)NC(=O)OCc1ccccc1Cl)C(=O)NCc1ccccc1 [Compound 7e, N,N,N’-tris[(N^α-2-chlorobenzyloxycarbonyl)-L-lysil-3-aminopropyl]-L-diaminoalanine benzylamide pentahydrochloride] | – | – | 2.8 µM | 11.8 µM | 24.3 µM | 11 µM | >89 µM | >89 µM | >88 µM | 11.8 µM | >88 µM | 44 µM | 88 µM | – | –
4 | NCCCC[C@H](NC(=O)OCc1ccccc1Cl)C(=O)NCCCN[C@@H](CCN(CCCNC(=O)[C@H](CCCCN)NC(=O)OCc1ccccc1Cl)CCCNC(=O)[C@H](CCCCN)NC(=O)OCc1ccccc1Cl)C(=O)NCc1ccccc1 [Compound 7f, N,N,N’-tris[(N^α-2-chlorobenzyloxycarbonyl)-L-lysil-3-aminopropyl]-L-diaminobutyro benzylamide pentahydrochloride] | – | – | 11.7 µM | 10.3 µM | 48 µM | 11 µM | >88 µM | >88 µM | >89 µM | 48 µM | >89 µM | 44 µM | 89 µM | – | –
5 | NCCCC[C@H](NC(=O)OCc1ccccc1Cl)C(=O)NCCCN[C@@H](CCCCN(CCCNC(=O)[C@H](CCCCN)NC(=O)OCc1ccccc1Cl)CCCNC(=O)[C@H](CCCCN)NC(=O)OCc1ccccc1Cl)C(=O)NCc1ccccc1 [Compound 7h, N,N,N’-tris[(N^α-2-chlorobenzyloxycarbonyl)-L-lysil-3-aminopropyl]-L-lysine benzylamide penta-hydrochloride] | – | – | 21.6 µM | 21.6 µM | 86 µM | 5.4 µM | >86 µM | >86 µM | 43 µM | 86 µM | >86 µM | 43 µM | 86 µM | – | –
6 | NCCCC[C@H](NC(=O)OCc1ccccc1Cl)C(=O)N[C@@H](Cc1ccccc1)C(=O)NCCCN(CCCNC(=O)[C@H](Cc1ccccc1)NC(=O)[C@H](CCCCN)NC(=O)OCc1ccccc1Cl)C[C@@H](CO)N(CCCNC(=O)[C@H](Cc1ccccc1)NC(=O)[C@H](CCCCN)NC(=O)OCc1ccccc1Cl)CCCNC(=O)[C@H](Cc1ccccc1)NC(=O)[C@H](CCCCN)NC(=O)OCc1ccccc1Cl [Compound 10a, N,N',N,N’-tetrakis[(N^α-2-chlorobenzyloxycarbonyl)-L-lysil-L-phenylalanyl-3-aminopropyl]-L-α,δ-diaminopropanol hexahydrochloride] | – | – | 1.7 µM | 3.4 µM | 30.2 µM | 3.4 µM | 13.8 µM | >55 µM | 6.9 µM | 7.3 µM | 6.8 µM | 6.8 µM | 6.8 µM | – | –
7 | NCCCC[C@H](NC(=O)OCc1ccccc1Cl)C(=O)N[C@@H](Cc1ccccc1)C(=O)NCCCN(CCCNC(=O)[C@H](Cc1ccccc1)NC(=O)[C@H](CCCCN)NC(=O)OCc1ccccc1Cl)CC[C@@H](CO)N(CCCNC(=O)[C@H](Cc1ccccc1)NC(=O)[C@H](CCCCN)NC(=O)OCc1ccccc1Cl)CCCNC(=O)[C@H](Cc1ccccc1)NC(=O)[C@H](CCCCN)NC(=O)OCc1ccccc1Cl [Compound 10b, N,N',N,N’-tetrakis[(N^α-2-chlorobenzyloxycarbonyl)-L-lysil-L-phenylalanyl-3-aminopropyl]-L-α,δ-diaminobutanol hexahydrochloride] | – | – | 1.3 µM | 7.3 µM | 47 µM | 3.4 µM | 13.8 µM | >55 µM | 6.9 µM | 7.3 µM | 6.9 µM | 6.9 µM | 6.9 µM | – | –
8 | CC1(C)S[C@@H]2[C@H](NC(=O)Cc3ccccc3)C(=O)N2[C@H]1C(=O)O [Penicillin G, reference compound] | – | – | – | – | – | – | – | – | – | – | – | – | – | 6.6 µM (≈ 2.21 µg/mL) | –
9 | C[C@@H]1[C@H](O)[C@@H](C)/C=C/C=C/C=C/C=C/C=C/C=C/C=C/[C@H](O[C@@H]2O[C@H](C)[C@@H](O)[C@H](N)[C@@H]2O)C[C@@H]2O[C@](O)(C[C@@H](O)C[C@@H](O)[C@H](O)CC[C@@H](O)C[C@@H](O)CC(=O)O[C@H]1C)C[C@H](O)[C@H]2C(=O)O [amphotericin B, reference compound] | – | – | – | – | – | – | – | – | – | – | – | – | – | – | 1.1 µM (≈ 1.02 µg/mL)
